According to ChEMBL document CHEMBL1201862, “PubChem BioAssay data set” (2004):
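Where inhibition never reached the appropriate level, the endpoint shown equals the highest concentration tested. Otherwise, values were interpolated linearly from a five-concentration, 48-hour dose response in 96-well plates. GI50: concentration for 50% inhibition of growth.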 Active and inactive are the calls of the source. Rule as the data show it: active = GI50 up to about 1.1 µM and inactive = higher.

Experiments:
Experiment in all cases: NCI anticancer screen, dose series, 48 h
[1] = tested on: TK-10
[2] = tested on: HCT-15
[3] = tested on: MCF7
[4] = tested on: HT-29
[5] = tested on: NCI-H23
[6] = tested on: CCRF-CEM
[7] = tested on: SR
[8] = tested on: DU-145
[9] = tested on: SN12C
[10] = tested on: SK-OV-3
[11] = tested on: RPMI-8226
[12] = tested on: K562
[13] = tested on: M14
[14] = tested on: SF-268
[15] = tested on: T47D
[16] = tested on: MDA-N
[17] = tested on: A549
[18] = tested on: 786-0
[19] = tested on: HL-60
[20] = tested on: SW-620
[21] = tested on: MDA-MB-231
[22] = tested on: UACC-62
[23] = tested on: SK-MEL-5
[24] = tested on: Malme-3M
[25] = tested on: EKVX
[26] = tested on: CAKI-1
[27] = tested on: SNB-75
[28] = tested on: MOLT-4
[29] = tested on: IGROV-1
[30] = tested on: OVCAR-8
[31] = tested on: HCC 2998
[32] = tested on: RXF 393
[33] = tested on: COLO 205
[34] = tested on: HOP-62
[35] = tested on: PC-3
[36] = tested on: SF-295
[37] = tested on: UACC-257
[38] = tested on: SK-MEL-28
[39] = tested on: KM12
[40] = tested on: SF-539
[41] = tested on: NCI-H460
[42] = tested on: BT-549
[43] = tested on: OVCAR-5
[44] = tested on: A498
[45] = tested on: SNB-19
[46] = tested on: HCT-116
[47] = tested on: SK-MEL-2
[48] = tested on: OVCAR-3
[49] = tested on: MDA-MB-435
[50] = tested on: NCI-H226
[51] = tested on: UO-31
[52] = tested on: HOP-92
[53] = tested on: NCI/ADR-RES
[54] = tested on: U-251
[55] = tested on: LOX IMVI
[56] = tested on: ACHN
[57] = tested on: OVCAR-4
[58] = tested on: NCI-H522

O=[N+]([O-])c1ccc(/C=N/Nc2nnc3c4ccccc4c4ncccc4c3n2)o1
GI50 [1]: > 10 µM (inactive)
GI50 [2]: > 10 µM
GI50 [3]: > 10 µM (inactive)
GI50 [4]: > 10 µM (inactive)
GI50 [5]: > 10 µM (inactive)
GI50 [6]: > 10 µM (inactive)
GI50 [7]: > 10 µM (inactive)
GI50 [8]: > 10 µM (inactive)
GI50 [9]: > 10 µM (inactive)
GI50 [10]: > 10 µM (inactive)
GI50 [11]: > 10 µM (inactive)
GI50 [12]: > 10 µM (inactive)
GI50 [13]: > 10 µM (inactive)
GI50 [14]: > 10 µM (inactive)
GI50 [15]: > 10 µM (inactive)
GI50 [16]: > 10 µM (inactive)
GI50 [17]: > 10 µM (inactive)
GI50 [18]: > 10 µM (inactive)
GI50 [19]: > 10 µM (inactive)
GI50 [20]: > 10 µM (inactive)
GI50 [21]: > 10 µM (inactive)
GI50 [22]: > 10 µM (inactive)
GI50 [23]: > 10 µM (inactive)
GI50 [24]: > 10 µM (inactive)
GI50 [25]: > 10 µM (inactive)
GI50 [26]: > 10 µM (inactive)
GI50 [27]: > 10 µM (inactive)
GI50 [28]: > 10 µM (inactive)
GI50 [29]: > 10 µM (inactive)
GI50 [30]: > 10 µM (inactive)
GI50 [31]: > 10 µM (inactive)
GI50 [32]: > 10 µM (inactive)
GI50 [33]: > 10 µM (inactive)
GI50 [34]: > 10 µM (inactive)
GI50 [35]: > 10 µM (inactive)
GI50 [36]: > 10 µM (inactive)
GI50 [37]: > 10 µM (inactive)
GI50 [38]: > 10 µM (inactive)
GI50 [39]: > 10 µM (inactive)

CCCCCCCCCCCCCCCCCCNC(=S)N/C=C1\C(=O)Nc2ccccc2C1=O
GI50 [1]: 23.3 µM (inactive)
GI50 [2]: 15.6 µM
GI50 [40]: 19.7 µM (inactive)
GI50 [41]: 16.1 µM (inactive)
GI50 [3]: 20.2 µM (inactive)
GI50 [42]: 18.9 µM (inactive)
GI50 [4]: 16.9 µM (inactive)
GI50 [5]: 18.9 µM (inactive)
GI50 [43]: 15.4 µM (inactive)
GI50 [44]: 21.4 µM (inactive)
GI50 [8]: 16 µM (inactive)
GI50 [45]: 17.3 µM (inactive)
GI50 [9]: 22.4 µM (inactive)
GI50 [46]: 15.7 µM (inactive)
GI50 [10]: 19.2 µM (inactive)
GI50 [47]: 21.4 µM (inactive)
GI50 [48]: 18.5 µM (inactive)
GI50 [49]: 19.5 µM (inactive)
GI50 [13]: 18.3 µM (inactive)
GI50 [50]: 22.9 µM (inactive)
GI50 [14]: 13.6 µM (inactive)
GI50 [15]: 24.7 µM (inactive)
GI50 [16]: 17.4 µM (inactive)
GI50 [17]: 21.1 µM (inactive)
GI50 [51]: 15.5 µM (inactive)
GI50 [18]: 15.6 µM (inactive)
GI50 [52]: 15.8 µM (inactive)
GI50 [53]: 18.4 µM (inactive)
GI50 [19]: 4.92 µM (inactive)
GI50 [20]: 19.5 µM (inactive)
GI50 [21]: 14.9 µM (inactive)
GI50 [23]: 24.2 µM (inactive)
GI50 [25]: 13.7 µM (inactive)
GI50 [26]: 16.9 µM (inactive)
GI50 [54]: 19.2 µM (inactive)
GI50 [27]: 13.2 µM (inactive)
GI50 [28]: 12.7 µM (inactive)
GI50 [55]: 16.3 µM (inactive)
GI50 [29]: 5.83 µM (inactive)
GI50 [30]: 15.6 µM (inactive)
GI50 [31]: 16.3 µM (inactive)
GI50 [32]: 22.2 µM (inactive)
GI50 [33]: 17.4 µM (inactive)
GI50 [34]: 15.6 µM (inactive)
GI50 [56]: 16.4 µM (inactive)
GI50 [36]: 21.4 µM (inactive)
GI50 [37]: 17.1 µM (inactive)
GI50 [38]: 16.5 µM (inactive)
GI50 [57]: 20.6 µM (inactive)
GI50 [39]: 16.1 µM (inactive)

CC1=CCC(C(C)(C)NC(=O)c2ccccc2)C/C1=N/O (configuration not stated)
GI50 [1]: > 100 µM (inactive)
GI50 [2]: > 100 µM
GI50 [40]: > 100 µM (inactive)
GI50 [41]: > 100 µM (inactive)
GI50 [3]: > 100 µM (inactive)
GI50 [42]: > 100 µM (inactive)
GI50 [4]: > 100 µM (inactive)
GI50 [5]: > 100 µM (inactive)
GI50 [43]: > 100 µM (inactive)
GI50 [6]: > 100 µM (inactive)
GI50 [8]: > 100 µM (inactive)
GI50 [45]: > 100 µM (inactive)
GI50 [9]: > 100 µM (inactive)
GI50 [46]: > 100 µM (inactive)
GI50 [10]: > 100 µM (inactive)
GI50 [48]: > 100 µM (inactive)
GI50 [49]: > 100 µM (inactive)
GI50 [12]: > 100 µM (inactive)
GI50 [13]: > 100 µM (inactive)
GI50 [14]: > 100 µM (inactive)
GI50 [15]: > 100 µM (inactive)
GI50 [16]: > 100 µM (inactive)
GI50 [17]: > 100 µM (inactive)
GI50 [51]: > 100 µM (inactive)
GI50 [18]: > 100 µM (inactive)
GI50 [52]: 43.3 µM (inactive)
GI50 [19]: > 100 µM (inactive)
GI50 [20]: > 100 µM (inactive)
GI50 [21]: > 100 µM (inactive)
GI50 [22]: > 100 µM (inactive)
GI50 [23]: > 100 µM (inactive)
GI50 [25]: > 100 µM (inactive)
GI50 [54]: > 100 µM (inactive)
GI50 [27]: > 100 µM (inactive)
GI50 [28]: > 100 µM (inactive)
GI50 [55]: > 100 µM (inactive)
GI50 [29]: > 100 µM (inactive)
GI50 [30]: > 100 µM (inactive)
GI50 [31]: > 100 µM (inactive)
GI50 [58]: > 100 µM (inactive)
GI50 [33]: > 100 µM (inactive)
GI50 [34]: > 100 µM (inactive)
GI50 [35]: > 100 µM (inactive)
GI50 [36]: > 100 µM (inactive)
GI50 [37]: > 100 µM (inactive)
GI50 [38]: > 100 µM (inactive)
GI50 [57]: > 100 µM (inactive)
GI50 [39]: > 100 µM (inactive)
